The source made the active and inactive calls. The rule behind the calls is not given here.
Columns and labels:
[1] = target: UDP-N-acetylglucosamine 1-carboxyvinyltransferase (Escherichia coli K-12) (UniProt P0A749); experiment: (§1) Inhibition of recombinant Escherichia coli MurA expressed in Escherichia coli NiCo21 assessed as residual activity using UNAG and PEP as substrate at 500 uM preincubated for 30 mins in presence of UNAG followed by PEP substrate addition and measured after 15 mins by malachite green based colorimetric assay; conditions: time 45.0 min
Chain of UDP-N-acetylglucosamine 1-carboxyvinyltransferase (Escherichia coli K-12) (P0A749 whole entry): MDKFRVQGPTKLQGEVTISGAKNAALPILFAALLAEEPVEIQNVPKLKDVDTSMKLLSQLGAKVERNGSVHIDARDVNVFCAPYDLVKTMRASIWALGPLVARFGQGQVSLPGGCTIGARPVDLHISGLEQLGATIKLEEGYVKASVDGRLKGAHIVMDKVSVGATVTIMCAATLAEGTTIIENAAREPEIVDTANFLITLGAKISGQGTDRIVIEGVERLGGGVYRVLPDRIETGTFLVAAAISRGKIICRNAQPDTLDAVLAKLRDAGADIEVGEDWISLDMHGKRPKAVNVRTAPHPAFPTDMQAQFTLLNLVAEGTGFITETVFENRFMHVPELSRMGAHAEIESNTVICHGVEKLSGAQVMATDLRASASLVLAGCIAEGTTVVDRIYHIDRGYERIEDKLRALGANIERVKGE

[2] = Thiol reactivity of compound at pH 7.4 buffer at 100 uM and measured for 4 hrs every 5 mins in presence of DTNB and TCEP by microplate reader analysis; format: physicochemical; conditions: pH 7.4, 4 h
Escherichia coli = experiment: Antibacterial activity against Escherichia coli ATCC 25922 assessed as bacterial growth inhibition at <=128 ug/ml incubated for 24 hrs by broth dilution method; format: functional, organism-based; conditions: dose <= 128.0 µg/ml
Staphylococcus aureus = experiment: Antibacterial activity against Staphylococcus aureus ATCC 29213 assessed as bacterial growth inhibition at <= 128 ug/ml incubated for 24 hrs by broth dilution method; format: functional, organism-based; conditions: dose <= 128.0 µg/ml
[3] = target: UDP-N-acetylglucosamine 1-carboxyvinyltransferase (Escherichia coli K-12) (UniProt P0A749); experiment: Irreversible inhibition of recombinant Escherichia coli MurA expressed in Escherichia coli NiCo21 using UNAG and PEP as substrate assessed as second-order rate constant for enzyme inactivation, ratio of Kinact/Ki preincubated for 30 mins in presence of UNAG followed by 100 fold dilution and PEP substrate addition and measured after 15 mins by malachite green based colorimetric assay; conditions: time 45.0 min
[4] = target: UDP-N-acetylglucosamine 1-carboxyvinyltransferase (Escherichia coli K-12, UniProt P0A749); experiment: Inhibition of recombinant Escherichia coli MurA expressed in Escherichia coli NiCo21 using UNAG and PEP as substrate preincubated for 30 mins in presence of UNAG followed by PEP substrate addition and measured after 15 mins by malachite green based colorimetric assay
Chain of UDP-N-acetylglucosamine 1-carboxyvinyltransferase (P0A749 whole entry): as above

[5] = target: UDP-N-acetylglucosamine 1-carboxyvinyltransferase (Escherichia coli K-12) (UniProt P0A749); experiment: as §1, with “Irreversible inhibition” for “Inhibition”, “1 mM” for “500 uM”; conditions: time 45.0 min
[6] = Thiol reactivity of compound at pH 7.4 buffer assessed as fold decrease by measuring second order rate constant at 100 uM and measured for 4 hrs every 5 mins in presence of DTNB and TCEP by microplate reader analysis relative to Iodoacetamide; format: physicochemical; conditions: pH 7.4, 4 h

| Activity [1] | Drug metabolism [2] | Ratio [3] | IC50 [4] | Activity [5] | fold change (FC) [6] | Structure (SMILES) | Activity (Escherichia coli) | Activity (Staphylococcus aureus) |
| --- | --- | --- | --- | --- | --- | --- | --- | --- |
| – | Metabolite_Detected | 2.79 10^-4/µM/min | 137 µM | – | – | Cc1ccc(S(=O)(=O)NC(=O)CC2CCN(C(=O)CCl)CC2)cc1 | inactive | inactive |
| 70% | Metabolite_Detected | – | – | – | – | O=C(CCl)N1CCc2ccccc2C1 | inactive | inactive |
| 77% | Metabolite_Notdetected | – | – | – | – | O=C(CCl)NC12CC3CC(CC(C3)C1)C2 | inactive | inactive |
| 47% | Metabolite_Detected | – | – | – | – | O=C(CCl)N1CCC(COP(=O)(O)O)C1 (stereo not drawn) | inactive | inactive |
| 100% | Metabolite_Detected | – | – | – | – | CCOC(=O)C1CCCN(C(=O)CCl)C1 (stereo not drawn) | inactive | inactive |
| 92% | Metabolite_Detected | – | – | – | – | COc1cc(NC(=O)CCl)cc(OC)c1OC | inactive | inactive |
| 71% | Metabolite_Detected | – | – | – | – | O=C(CCl)Nc1ccc(-c2ncco2)cc1 | inactive | inactive |
| 79% | Metabolite_Notdetected | – | – | – | – | O=C(CCl)NC1CCC2CCCCC2C1 (stereo not drawn) | inactive | inactive |
| 61% | Metabolite_Detected | – | – | – | – | CC(C)(C)OC(=O)NC1CCN(C(=O)CCl)CC1 | inactive | inactive |
| – | Metabolite_Detected | 7.13 10^-3/µM/min | 195 µM | – | – | O=C(CCl)N1CCC(Sc2nccs2)CC1 | inactive | inactive |
| 100% | Metabolite_Detected | – | – | – | – | CCCCOc1ccc(NC(=O)CCl)cc1 | inactive | inactive |
| 95% | Metabolite_Detected | – | – | – | – | CCOC(=O)N1CCN(C(=O)CCl)CC1 | inactive | inactive |
| 83% | Metabolite_Detected | – | – | – | – | O=C(CCl)Nc1ccc2ccccc2c1 | inactive | inactive |
| 77% | Metabolite_Detected | – | – | – | – | O=C(CCl)Nc1ccc(C(F)(F)F)cc1 | inactive | inactive |
| – | – | – | – | 96.1% | – | CC(=O)NC1CCCC2CCCCC21 (stereo not drawn) | – | – |
| 54% | Metabolite_Detected | – | – | – | 167 | O=C(CCl)Nc1ccc(C2CCCCC2)cc1 | inactive | inactive |
| 90% | – | – | – | – | – | O=C(CCl)N1CCN(c2ccccc2)CC1 | inactive | inactive |

| Activity [1] | Drug metabolism [2] | Ratio [3] | IC50 [4] | Activity [5] | fold change (FC) [6] | Structure (SMILES) | Activity (Escherichia coli) | Activity (Staphylococcus aureus) |
| --- | --- | --- | --- | --- | --- | --- | --- | --- |
| 100% | Metabolite_Detected | – | – | – | – | O=C(CCl)Nc1ccc(-c2nnn[nH]2)cc1 | inactive | inactive |
| – | Metabolite_Detected | – | 162 µM | – | – | O=C(CCl)N1CCC(Sc2nnc(-c3ccccc3)o2)CC1 | inactive | inactive |
| 95% | Metabolite_Detected | – | – | – | – | O=C(O)C1CCN(C(=O)CCl)CC1 | inactive | inactive |
| 75% | Metabolite_Detected | – | – | – | – | COC(=O)c1ccc(NC(=O)CCl)o1 | inactive | inactive |
| – | Metabolite_Detected | – | 172 µM | – | – | COc1ccc2nc(SC3CCN(C(=O)CCl)CC3)[nH]c2n1 | inactive | inactive |
| – | Metabolite_Detected | 4.16 10^-4/µM/min | 240 µM | – | – | CS(=O)(=O)NC1CCN(C(=O)CCl)CC1 | inactive | inactive |
| – | Metabolite_Detected | 2.99 10^-4/µM/min | 263 µM | – | 2 | O=C(CCl)N1CCC(N2CCC(Br)C2=O)C1 (stereo not drawn) | inactive | inactive |
| 89% | Metabolite_Detected | – | – | – | – | N#Cc1ccc(NC(=O)CCl)cc1 | inactive | inactive |
| 75% | Metabolite_Detected | – | – | – | – | O=C(O)C1CCCN(C(=O)CCl)C1 (stereo not drawn) | inactive | inactive |
| 99% | Metabolite_Detected | – | – | – | – | O=C(CCl)N1CCN(Cc2ccc3c(c2)OCO3)CC1 | inactive | inactive |
| 81% | Metabolite_Detected | – | – | – | – | O=C(CCl)Nc1cccc2ccccc12 | inactive | inactive |
| 100% | Metabolite_Detected | – | – | – | – | CCOC(=O)C1CCN(C(=O)CCl)CC1 | inactive | inactive |
| 73% | Metabolite_Detected | – | – | – | – | O=C(CCl)N1CCCc2ccccc21 | inactive | inactive |
| 81% | Metabolite_Detected | – | – | – | – | O=C(CCl)N1CCN(CC(=O)N2CCCCC2)CC1 | inactive | inactive |
| 77% | Metabolite_Detected | – | – | – | – | COc1ccc(N2CCN(C(=O)CCl)CC2)cc1 | inactive | inactive |
| – | Metabolite_Detected | 4.84 10^-4/µM/min | 287 µM | – | – | O=C(CCl)Nc1ccc2nsnc2c1 | inactive | inactive |
| 71% | Metabolite_Detected | – | – | – | – | O=C(CCl)N1CCC(c2ccccc2)CC1 | inactive | inactive |

| Structure (SMILES) | Activity [1] | Drug metabolism [2] | Ratio [3] | IC50 [4] | Activity [5] | fold change (FC) [6] | Activity (Escherichia coli) | Activity (Staphylococcus aureus) |
| --- | --- | --- | --- | --- | --- | --- | --- | --- |
| O=C(CCl)N1CCCCC1 | 79% | Metabolite_Detected | – | – | – | – | inactive | inactive |
| CC1CCCN(C(=O)CCl)C1 (stereo not drawn) | 80% | Metabolite_Detected | – | – | – | – | inactive | inactive |
| O=C(CCl)NC1CCCC(OP(=O)(Oc2ccccc2)Oc2ccccc2)C1 (stereo not drawn) | 89% | Metabolite_Detected | – | – | – | – | inactive | inactive |
| Cc1cc(NC(=O)CCl)on1 | 71% | Metabolite_Detected | – | – | – | – | inactive | inactive |
| CC(C)CNC(=O)CCl | 90% | Metabolite_Notdetected | – | – | – | – | inactive | inactive |
| NC1CCN(C(=O)CCl)CC1 | 82% | Metabolite_Detected | – | – | – | – | inactive | inactive |
| O=C(CCl)N1CCOCC1 | 87% | Metabolite_Detected | – | – | – | – | inactive | inactive |
| O=C(CCl)NC1CCCCC1 | 74% | Metabolite_Notdetected | – | – | – | – | inactive | inactive |
| O=C(CCl)Nc1nccs1 | 55% | Metabolite_Detected | – | – | – | 4 | inactive | inactive |
| O=C(CCl)Nc1ccncc1 | 77% | Metabolite_Detected | – | – | – | – | inactive | inactive |
| O=C(CCl)N1CCC(COP(=O)(Oc2ccccc2)Oc2ccccc2)C1 (stereo not drawn) | – | Metabolite_Detected | – | 311 µM | – | – | inactive | inactive |
| O=C(CCl)N1CCCC(OP(=O)(Oc2ccccc2)Oc2ccccc2)C1 (stereo not drawn) | – | Metabolite_Detected | – | 543 µM | – | – | inactive | inactive |
